Experimental data reported in PMC7656694 (Biotechnology for Biofuels, 2020).
Where a chain is given by its changes, count along the chain named. Numbers in names are those of the source.

Key:
EcBdh = target: T1, EcBdh (Enterobacter cloacae, UniProt G8FSA9); assay: NADH consumption at […] nm; type: biochemical; conditions: 0.25 mM NADH, 25 mM acetoin, 100 mM potassium phosphate pH 7.0; racemic acetoin
T1 construct: gene dar; full length, N-terminal His6 and TEV site (cleavage not described), gene amplified from Z. mobilis strain BC-11B, expressed in Zymomonas mobilis 9C, purified

SmBdh = target: T2, SmBdh (Serratia marcescens, UniProt H9XP47); assay: X-ray crystal structure, […] A; type: binding
T2 construct: gene budC; full length, N-terminal His6 and TEV site after start codon (cleavage not described), codon-optimized, expressed in Zymomonas mobilis 9C; tetramer, site completed by Gln247 of the symmetry-related chain
T2 sequence (H9XP47 2-251): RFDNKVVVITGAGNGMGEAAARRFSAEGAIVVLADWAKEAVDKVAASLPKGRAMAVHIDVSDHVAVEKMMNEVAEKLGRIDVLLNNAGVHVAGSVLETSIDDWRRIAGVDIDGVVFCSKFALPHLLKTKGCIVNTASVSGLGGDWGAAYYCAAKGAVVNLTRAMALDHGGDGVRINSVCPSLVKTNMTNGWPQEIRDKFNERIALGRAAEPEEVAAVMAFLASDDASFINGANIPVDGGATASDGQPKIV

crystal structure = target: the molecule itself; assay: crystal structure

T1 sequence (G8FSA9 1-256): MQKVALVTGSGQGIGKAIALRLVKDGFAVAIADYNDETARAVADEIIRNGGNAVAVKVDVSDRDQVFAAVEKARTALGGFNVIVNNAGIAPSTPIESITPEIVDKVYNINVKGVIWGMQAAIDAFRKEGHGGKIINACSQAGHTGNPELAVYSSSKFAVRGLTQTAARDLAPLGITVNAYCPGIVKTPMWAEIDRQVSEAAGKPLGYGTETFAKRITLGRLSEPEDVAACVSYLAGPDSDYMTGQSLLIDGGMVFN

CC(=O)C(C)O (racemic) [acetoin]
NADH consumption at 340 nm (EcBdh): Proteins were expressed in the Z. mobilis 9C strain, purified to homogeneity

CC(=O)[C@@H](C)O [(3R)-acetoin]
X-ray crystal structure, 2.0 A (SmBdh; NAD+ bound, active site of closed molecule A, modelled together with (3S)-acetoin from racemate): both (3R)- and (3S)-acetoin molecules bound in the pocket

CC(=O)[C@H](C)O [(3S)-acetoin]
X-ray crystal structure, 2.0 A (SmBdh; NAD+ bound, active site of closed molecule A, modelled together with (3R)-acetoin from racemate): both (3R)- and (3S)-acetoin molecules bound in the pocket

Nc1ncnc2c1ncn2[C@@H]1O[C@H](COP(=O)(O)OP(=O)(O)O)[C@@H](O)[C@H]1O [ADP]
X-ray crystal structure, 2.0 A (SmBdh; cofactor site of open molecule B, only NAD+ was added in crystallization): the corresponding space is occupied by only adenine diphosphate

NC(=O)C1=CN([C@@H]2O[C@H](COP(=O)(O)OP(=O)(O)OC[C@H]3O[C@@H](n4cnc5c(N)ncnc54)[C@H](O)[C@@H]3O)[C@@H](O)[C@H]2O)C=CC1 [NADH]
NADH consumption at 340 nm (EcBdh): subjected to activity analysis using the NADH consumption assay

NC(=O)c1ccc[n+]([C@@H]2O[C@H](COP(=O)(O)OP(=O)(O)OC[C@H]3O[C@@H](n4cnc5c(N)ncnc54)[C@H](O)[C@@H]3O)[C@@H](O)[C@H]2O)c1 [NAD^+]
X-ray crystal structure, 2.0 A (SmBdh; cofactor site of closed molecule A, with acetoin): locate NAD ^+ cofactor molecule and acetoin molecules in protein molecule A

B1: Serratia marcescens 2,3-butanediol dehydrogenase, wild type (N-term SmBdh) (enzyme, UniProt H9XP47 1-251, looked up)
chain: MRFDNKVVVITGAGNGMGEAAARRFSAEGAIVVLADWAKEAVDKVAASLPKGRAMAVHIDVSDHVAVEKMMNEVAEKLGRIDVLLNNAGVHVAGSVLETSIDDWRRIAGVDIDGVVFCSKFALPHLLKTKGCIVNTASVSGLGGDWGAAYYCAAKGAVVNLTRAMALDHGGDGVRINSVCPSLVKTNMTNGWPQEIRDKFNERIALGRAAEPEEVAAVMAFLASDDASFINGANIPVDGGATASDGQPKIV
notes: tag and TEV site placed immediately after the start codon; also called WT SmBdh; WT SmBDH; source: Z. mobilis strain 9C, purified (HisTrap, size exclusion chromatography)
stoichiometry N (crystal structure): 4

B2: Serratia marcescens 2,3-butanediol dehydrogenase Q247A mutant (enzyme)
chain: B1 chain with Q247A
notes: also called SmBdh Q247A; Q247A SmBdh; source: Z. mobilis strain 9C, purified (HisTrap, size exclusion chromatography)
binding result (crystal structure): binds

B3: Serratia marcescens 2,3-butanediol dehydrogenase Q247A + V139Q double mutant (enzyme)
chain: B1 chain with V139Q, Q247A
notes: also called SmBdh Q247A + V139Q; Q247A + V139Q SmBdh; source: Z. mobilis strain 9C, purified (HisTrap, size exclusion chromatography)
binding result (crystal structure): binds
